Patent publication US20250163104A1, “MACROCYCLIC IMMUNOMODULATORS” (priority 2021, published 2025)
*1 amine or outer side, *2 acyl side, *3 side chain or, on linkers, in order; H or OH if unused. Where a SMILES comes first, the peptide text is derived from it. Bridges are numbered along the chain shown (N, C = ends). [ ]: non-standard residue; d: D form. The star is where a group is joined. Phe(4-COOH) = N[C@@H](Cc1ccc(C(=O)O)cc1)C(=O)O; X5 = O=C([C@H](Cc1ccc2ncccc2c1)N[*:1])[*:2]; Bip = N[C@@H](Cc1ccc(-c2ccccc2)cc1)C(=O)O; Phe(3-Me) = Cc1cccc(C[C@H](N)C(=O)O)c1; Phe(2-F) = N[C@@H](Cc1ccccc1F)C(=O)O; Val(3-OH) = CC(C)(O)[C@H](N)C(=O)O; hPhe = N[C@@H](CCc1ccccc1)C(=O)O; 4Pal = N[C@@H](Cc1ccncc1)C(=O)O; 2Thi = N[C@@H](Cc1cccs1)C(=O)O; Cha = N[C@@H](CC1CCCCC1)C(=O)O; Cit = NC(=O)NCCC[C@H](N)C(=O)O; Hpra = C#CCC[C@H](N)C(=O)O; Carboxymethyl = O=C(O)C*; Nle = CCCC[C@H](N)C(=O)O; Orn = NCCC[C@H](N)C(=O)O; Pra = C#CC[C@H](N)C(=O)O; Dab = NCC[C@H](N)C(=O)O; Dap = NC[C@H](N)C(=O)O; Propargyl = C#CC*

molecular target: T1, human PD-1 / PD-L1-Ig binding on Jurkat cell line over-expressing human PD-1 (Jurkat-PD-1) (Homo sapiens, UniProt Q15116); test: Jurkat-PD-1 Cell Binding High-Content Screening Assay (CBA); format: cell-based; settings: Jurkat-PD-1 cells, PE-labeled PD-L1-Ig 20 nM final; read-out: Jurkat HPD1_PDL1 IC50
T1 construct: expressed in transfected cells; host or cells: Jurkat
T1 sequence (Q15116 25-288): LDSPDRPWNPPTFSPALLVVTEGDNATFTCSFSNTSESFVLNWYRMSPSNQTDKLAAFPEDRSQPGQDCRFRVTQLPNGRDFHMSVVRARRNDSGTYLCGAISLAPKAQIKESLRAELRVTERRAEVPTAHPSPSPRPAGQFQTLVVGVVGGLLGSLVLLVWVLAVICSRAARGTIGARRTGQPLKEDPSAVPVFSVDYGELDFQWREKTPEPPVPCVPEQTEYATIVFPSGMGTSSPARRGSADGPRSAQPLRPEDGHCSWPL
Outline: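 Binding of fluorescent PD-L1-Ig (phycoerythrin linked via the Ig tag, 20 nM final) to PD-1-overexpressing Jurkat cells was imaged after a 2 h, 37° C compound pretreatment and 1 hour ligand incubation.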

| SMILES | IC50 |
| --- | --- |
| C#CCOc1ccc(C[C@@H]2NC(=O)[C@H](C(C)C)NC(=O)[C@H](CC3CCCCC3)NC(=O)[C@H](CCN)NC(=O)[C@@H](CC(C)C)NC(=O)[C@H](CCCN)NC(=O)[C@H](Cc3ccc(OCC(=O)O)cc3)NC(=O)[C@H](Cc3ccc(-c4ccccc4)cc3)NC(=O)[C@H](Cc3ccc(OCC(=O)O)cc3)NC(=O)[C@H](Cc3cccc(C)c3)NC(=O)[C@H](CC(=O)O)NC(=O)[C@H](Cc3ccc(OCC(=O)O)cc3)NC(=O)[C@H](CCN)NC(=O)CSC[C@@H](C(=O)N[C@@H](CCN)C(N)=O)NC2=O)cc1 [Compound 1814] ({CH2CO}-[Dab]Y(Carboxymethyl)D[Phe(3-Me)]Y(Carboxymethyl)[Bip]Y(Carboxymethyl)[Orn][dL][Dab][Cha]VY(Propargyl)C[Dab]-NH2; thioether N-14) | 23 nM |
| CC(C)C[C@H]1NC(=O)[C@H](CCCN)NC(=O)[C@H](CCN)NC(=O)[C@H](Cc2ccc(-c3ccccc3)cc2)NC(=O)[C@H](C(C)C)NC(=O)[C@H](Cc2c[nH]c3ccccc23)NC(=O)[C@H](CC(=O)O)NC(=O)[C@H](Cc2ccc(C(=O)O)cc2)NC(=O)[C@H](Cc2ccc(OCC(=O)O)cc2)NC(=O)CSC[C@@H](C(=O)N[C@@H](C)C(N)=O)NC(=O)[C@H]([C@@H](C)O)NC(=O)[C@H](C(C)C)NC(=O)[C@H](CC2CCCCC2)NC(=O)[C@H](CCN)NC1=O [Compound 1383] | 19.1 nM |
| C#CCC[C@@H]1NC(=O)[C@H](CC2CCCCC2)NC(=O)[C@H](CCN)NC(=O)[C@@H](CC(C)C)NC(=O)[C@H](CCCN)NC(=O)[C@H](C(C)C)NC(=O)[C@H](Cc2ccc(-c3ccccc3)cc2)NC(=O)[C@H](C(C)C)NC(=O)[C@H](Cc2cccc(C)c2)NC(=O)[C@H](CC(=O)O)NC(=O)[C@H](Cc2ccc(OCC(=O)O)cc2)NC(=O)[C@H](CN)NC(=O)CSC[C@@H](C(N)=O)NC(=O)[C@H]([C@@H](C)O)NC1=O [Compound 2012] ({CH2CO}-[Dap]Y(Carboxymethyl)D[Phe(3-Me)]V[Bip]V[Orn][dL][Dab][Cha][Hpra]TC-NH2; thioether N-14) | 15.8 nM |
| CCCC[C@@H]1NC(=O)[C@H](Cc2c[nH]c3ccccc23)NC(=O)[C@H](CC(=O)O)NC(=O)[C@H](Cc2ccc(OCC(=O)O)cc2)NC(=O)[C@H](CN)NC(=O)CSC[C@@H](C(=O)N[C@@H](C)C(N)=O)NC(=O)[C@H]([C@@H](C)O)NC(=O)[C@H](C(C)C)NC(=O)[C@H](CC2CCCCC2)NC(=O)[C@H](CCN)NC(=O)[C@@H](CC(C)C)NC(=O)[C@H](CCCN)NC(=O)[C@H](CCCNC(N)=O)NC(=O)[C@H](Cc2ccc(-c3ccccc3)cc2)NC1=O [Compound 1358] ({CH2CO}-[Dap]Y(Carboxymethyl)DW[Nle][Bip][Cit][Orn][dL][Dab][Cha]VTCA-NH2; thioether N-14) | 7.3 nM |
| CC(C)C[C@H]1NC(=O)[C@H](CCCN)NC(=O)[C@H](CCCNC(N)=O)NC(=O)[C@H](Cc2ccc(-c3ccccc3)cc2)NC(=O)[C@H](C(C)C)NC(=O)[C@H](Cc2c[nH]c3ccccc23)NC(=O)[C@H](CC(=O)O)NC(=O)[C@H](Cc2c[nH]c3ccccc23)NC(=O)[C@H](CN)NC(=O)CSC[C@@H](C(=O)N[C@@H](C)C(N)=O)NC(=O)[C@H]([C@@H](C)O)NC(=O)[C@H](C(C)C)NC(=O)[C@H](CC2CCCCC2)NC(=O)[C@H](CCN)NC1=O [Compound 2122] ({CH2CO}-[Dap]WDWV[Bip][Cit][Orn][dL][Dab][Cha]VTCA-NH2; thioether N-14) | 31.3 nM |
| CCC(C)[C@@H]1NC(=O)[C@H](Cc2ccc(-c3ccccc3)cc2)NC(=O)[C@H](C(C)C)NC(=O)[C@H](Cc2c[nH]c3ccccc23)NC(=O)[C@H](CC(=O)O)NC(=O)[C@H](Cc2ccc(-c3cccc(C(=O)O)c3)cc2)NC(=O)[C@H](Cc2ccncc2)NC(=O)CSC[C@@H](C(=O)N[C@@H](C)C(N)=O)NC(=O)[C@H]([C@@H](C)O)NC(=O)[C@H](C(C)C)NC(=O)[C@H](CC2CCCCC2)NC(=O)[C@H](CCN)NC(=O)[C@@H](CC(C)C)NC(=O)[C@H](CCCN)NC1=O (stereo partly drawn) [Compound 2221] | 32.1 nM |
| CC(C)C[C@H]1NC(=O)[C@H](CCCN)NC(=O)[C@H](CCC(=O)O)NC(=O)[C@H](Cc2ccc(-c3ccccc3)cc2)NC(=O)[C@H](C(C)C)NC(=O)[C@H](Cc2cccs2)NC(=O)[C@H](CC(=O)O)NC(=O)[C@H](Cc2cccs2)NC(=O)[C@H](CN)NC(=O)CSC[C@@H](C(=O)N[C@@H](C)C(N)=O)NC(=O)[C@H]([C@@H](C)O)NC(=O)[C@H](C(C)C)NC(=O)[C@H](CC2CCCCC2)NC(=O)[C@H](CCN)NC1=O [Compound 2205] ({CH2CO}-[Dap][2Thi]D[2Thi]V[Bip]E[Orn][dL][Dab][Cha]VTCA-NH2; thioether N-14) | 18.6 nM |
| CC[C@H](C)[C@@H]1NC(=O)[C@H](Cc2ccc(-c3ccccc3)cc2)NC(=O)[C@H](C(C)C)NC(=O)[C@H](Cc2cccc(C)c2)NC(=O)[C@H](CC(=O)O)NC(=O)[C@H](Cc2ccc(C(=O)O)cc2)NC(=O)[C@H](Cc2ccc(OCC(=O)O)cc2)NC(=O)CSC[C@@H](C(=O)N[C@@H](C)C(N)=O)NC(=O)[C@H]([C@@H](C)O)NC(=O)[C@H](C(C)C)NC(=O)[C@H](CC(C)C)NC(=O)[C@H](CCN)NC(=O)[C@@H](CC(C)C)NC(=O)[C@H](CCCN)NC1=O [Compound 1249] ({CH2CO}-Y(Carboxymethyl)[Phe(4-COOH)]D[Phe(3-Me)]V[Bip]I[Orn][dL][Dab]LVTCA-NH2; thioether N-14) | 4.6 nM |

Further compounds by falling IC50, results first:

| IC50 | SMILES |
| --- | --- |
| 146 nM | CC(C)C[C@@H]1NC(=O)[C@H](Cc2c[nH]c3ccccc23)NC(=O)[C@H](CC(=O)O)NC(=O)[C@H](Cc2ccc(O)cc2)NC(=O)[C@H](Cc2ccccc2)NC(=O)CSC[C@@H](C(=O)N[C@@H](C)C(N)=O)NC(=O)[C@H](CO)NC(=O)[C@H](C(C)C)NC(=O)[C@H](CC(C)C)NC(=O)[C@H](CCN)NC(=O)[C@@H](C)NC(=O)[C@H](CCCN)NC(=O)[C@H](C(C)C)NC(=O)[C@H](Cc2ccc(-c3ccccc3)cc2)NC1=O [Compound 1095] ({CH2CO}-FYDWL[Bip]V[Orn][dA][Dab]LVSCA-NH2; thioether N-14) |
| 65.1 nM | CC(C)C[C@H]1NC(=O)[C@H](CCCN)NC(=O)[C@H](CCC(=O)O)NC(=O)[C@H](Cc2ccc(-c3ccccc3)cc2)NC(=O)[C@H](C(C)C)NC(=O)[C@H](Cc2c[nH]c3ccccc23)NC(=O)[C@H](CC(=O)O)NC(=O)[C@H](Cc2ccc3ncccc3c2)NC(=O)[C@H](Cc2ccncc2)NC(=O)CSC[C@@H](C(=O)N[C@@H](C)C(N)=O)NC(=O)[C@H]([C@@H](C)O)NC(=O)[C@H](C(C)C)NC(=O)[C@H](CC2CCCCC2)NC(=O)[C@H](CCN)NC1=O [Compound 2179] ({CH2CO}-[4Pal][X5]DWV[Bip]E[Orn][dL][Dab][Cha]VTCA-NH2; thioether N-14) |
| 57.6 nM | CC(C)C[C@H]1NC(=O)[C@H](CCCN)NC(=O)[C@H](CCCNC(N)=O)NC(=O)[C@H](Cc2ccc(-c3ccccc3)cc2)NC(=O)[C@H](C(C)C)NC(=O)[C@H](Cc2c[nH]c3ccccc23)NC(=O)[C@H](CC(=O)O)NC(=O)[C@H](Cc2ccc(OCC(=O)O)cc2)NC(=O)[C@H](CN)NC(=O)CSC[C@@H](C(=O)N[C@@H](C)C(N)=O)NC(=O)[C@H]([C@@H](C)O)NC(=O)[C@H](C(C)C)NC(=O)[C@H](CCc2ccccc2)NC(=O)[C@H](CCN)NC1=O [Compound 1364] ({CH2CO}-[Dap]Y(Carboxymethyl)DWV[Bip][Cit][Orn][dL][Dab][hPhe]VTCA-NH2; thioether N-14) |
| 32.9 nM | CCC(C)[C@@H]1NC(=O)[C@H](Cc2ccc(-c3ccccc3)cc2)NC(=O)[C@H](C(C)C)NC(=O)[C@H](Cc2ccc(F)c(C)c2)NC(=O)[C@H](CC(=O)O)NC(=O)[C@H](Cc2ccc(OCC(=O)O)cc2)NC(=O)[C@H](CN)NC(=O)CSC[C@@H](C(=O)N[C@@H](C)C(N)=O)NC(=O)[C@H]([C@@H](C)O)NC(=O)[C@H](C(C)C)NC(=O)[C@H](CC2CCCCC2)NC(=O)[C@H](CCN)NC(=O)[C@@H](CC(C)C)NC(=O)[C@H](CCCN)NC1=O (stereo partly drawn) [Compound 2244] |
| 30.6 nM | CC(C)C[C@H]1NC(=O)[C@H](CCCN)NC(=O)[C@H](CCC(=O)O)NC(=O)[C@H](Cc2ccc(-c3ccccc3)cc2)NC(=O)[C@H](C(C)C)NC(=O)[C@H](Cc2ccccc2F)NC(=O)[C@H](CC(=O)O)NC(=O)[C@H](Cc2ccncc2)NC(=O)[C@H](Cc2ccccc2)NC(=O)CSC[C@@H](C(=O)N[C@@H](C)C(N)=O)NC(=O)[C@H]([C@@H](C)O)NC(=O)[C@H](C(C)C)NC(=O)[C@H](CC2CCCCC2)NC(=O)[C@H](CCN)NC1=O [Compound 2208] ({CH2CO}-F[4Pal]D[Phe(2-F)]V[Bip]E[Orn][dL][Dab][Cha]VTCA-NH2; thioether N-14) |
| 16.5 nM | C#CC[C@H](NC(=O)[C@H](CCN)NC(=O)[C@@H]1CSCC(=O)N[C@@H](CCCN)C(=O)N[C@@H](Cc2ccc(C(=O)O)cc2)C(=O)N[C@@H](CC(=O)O)C(=O)N[C@@H](Cc2cccc(C)c2)C(=O)N[C@@H](Cc2ccc(C(=O)O)cc2)C(=O)N[C@@H](Cc2ccc(-c3ccccc3)cc2)C(=O)N[C@@H](Cc2ccc(C(=O)O)cc2)C(=O)N[C@@H](CCCN)C(=O)N[C@H](CC(C)C)C(=O)N[C@@H](CCN)C(=O)N[C@@H](CC2CCCCC2)C(=O)N[C@@H](C(C)(C)O)C(=O)N[C@@H](CCCN)C(=O)N1)C(N)=O [Compound 1864] ({CH2CO}-[Orn][Phe(4-COOH)]D[Phe(3-Me)][Phe(4-COOH)][Bip][Phe(4-COOH)][Orn][dL][Dab][Cha][Val(3-OH)][Orn]C[Dab][Pra]-NH2; thioether N-14) |
| 11 nM | CC(C)C[C@@H]1NC(=O)[C@H](CCN)NC(=O)[C@@H](CC(C)C)NC(=O)[C@H](CCCCN)NC(=O)[C@H](C(C)C)NC(=O)[C@H](Cc2ccc(-c3ccccc3)cc2)NC(=O)[C@H](C(C)C)NC(=O)[C@H](Cc2c[nH]c3ccccc23)NC(=O)[C@H](CC(=O)O)NC(=O)[C@H](Cc2ccc(O)cc2)NC(=O)[C@H](CC(N)=O)NC(=O)CSC[C@@H](C(=O)N[C@@H](C)C(N)=O)NC(=O)[C@H]([C@@H](C)O)NC(=O)[C@H](C(C)C)NC1=O [Compound 1025] ({CH2CO}-NYDWV[Bip]VK[dL][Dab]LVTCA-NH2; thioether N-14) |
